Measured values reported in patent US9834535B2, “Sulfamate derivative compounds for use in treating or alleviating pain” (Bio-Pharm Solutions Co., Ltd., priority 2013, dated 2017).

Tests used:
[1] = tested on: CFA-induced pain model; test: Antiallodynic activity on Complete Freund's Adjuvant (CFA)-induced inflammatory pain model (von Frey); type: in vivo, Sprague-Dawley rats; settings: 0.5 h, 0.5 h, rat, intraperitoneal; for response vs control in vivo at 18 mg/kg / response vs control in vivo at 40 mg/kg / response vs control in vivo at 60 mg/kg: Rattus norvegicus, ip, read-out: CFA model: effect (%) at the concentration administered
Method: Male, Sprague-Dawley rats (200-220 g, Nara Bio, Korea) were habituated for 1 week before surgery and allowed free access to food and water throughout the experimentation. Room temperature and humidity were maintained at 24±2° C. and 50±10%, respectively.
CFA-induced inflammatory pain was induced by the procedure of Nagakura et al. (2003) and Gregory P. et al. (2010) with minor modifications. CFA (sigma, USA) was injected in the left plantar with a 100 ul volume under gaseous anesthesia with isoflurane a 4:4 flow ratio of NO2 Sham controls were injected with 100 ul of saline and vehicle controls were identical to CFA infusion model, except for administration of vehicles.
(§1) Tactile sensitivity (Mechanical allodynia) was evaluated using von Frey monofilaments before and after treatment, and animals were used withdrawal threshold value was less than 4 g. One week after surgery, CFA-infused animals (n=4˜6), sham-operated animals (n=12), and vehicle-operated animals (n=17) were tested for tactile sensitivity with von Frey monofilaments 3 trials in each animal. All Animals were placed in a stainless steel mashed chamber and habituated for 30 min in the test box. The tactile sensitivity for ipsilateral hind paw was measured using the up-and-down method (Dixon, 1980) with seven von Frey monofilaments (0.4, 1, 2, 4, 6, 8, and 15 g) to 3 trials. Tactile sensitivity test was followed by Dixon's method (Dixon, 1980). The 50% paw withdrawal threshold for each paw was calculated using the following formula: [Xth] log=[vFr] log+ky where [vFr] is the force of the last von Frey used, k=0.2249 which is the average interval (in log units) between the von Frey monofilaments, and y is a value that depends upon the pattern of withdrawal responses (Dixon, 1980).
[…] The test was performed peak time of efficacy (0.5 hr) after compound administration.
The relative values compared to the sham (% control) were calculated and shown in Table 4, which show an antiallodynic effect of the compound of Examples on CFA-induced pain model in rats.

[2] = tested on: SNL model; test: Antiallodynic activity on Chung model (SNL, spinal nerve ligation; von Frey); type: in vivo, Sprague-Dawley rats; settings: 0.5 h, rat, oral, read-out: SNL model: effect (%) at the concentration administered
Method: Male. Sprague-Dawley rats (200-220 g, Orient Bio, Korea) were habituated for 1 week before the experiment and allowed free access to food and water throughout the experimentation. Room temperature and humidity were maintained at 24±2° C. and 50±10%, respectively. Neuropathic surgery (SNL, Spinal nerve ligation) model was clone as described in Kim and Chung (1992). Briefly, animal under gaseous anesthesia with isoflurane a 4:4 flow ratio of NO2. The left lumber spinal nerve L5 and L6 were isolated and tightly ligated with 4-0 silk thread. The wound was treated with a gentamicin antibiotics solution (4 mg/kg, 4 ul/g, bw), and the wound muscle was closed with cat cut chrom 4/0 thread and skin was closed dafilon 4/0 tread. Sham controls were prepared in the same manner as the spinal nerves were exposed, but no ligated L5 and L6 nerves. But, vehicle controls were identical to SNL model, except for administration of vehicles.
as §1, with “treatment” for “treatment,”, “SNL-operated” for “CFA-infused”, “(n=4˜10)” for “(n=12),”, “(n=4˜13)” for “(n=17)”
All animals were fasted 18 h before the administration of the compounds. The antiallodynic effect of the compounds were evaluated at the various dose (n=5˜6), orally administrated in a volume of 5 ul/g, bw in a vehicle of 30% (v/v) PEG 400 or 20% (v/v) Tween 80 or Saline. […]
The relative values compared to the sham group (% control) were calculated and shown in Table 5, which show an antiallodynic effect of the test compounds on SNL model in rats.

Cc1ccccc1[C@@H]1OC(C)(C)O[C@H]1COS(N)(=O)=O [Example 92, ((4S,5S)-5-(2-methylphenyl)-2,2-dimethyl-1,3-dioxolan-4-yl)methyl sulfamate]
response vs control in vivo at 18 mg/kg [1]: 22.3% | response vs control in vivo at 50 mg/kg [2]: 37.3%

CC1(C)O[C@H](COS(N)(=O)=O)[C@@H](Cc2ccccc2)O1 [Example 122, ((4R,5R)-5-benzyl-2,2-dimethyl-1,3-dioxolan-4-yl)methyl sulfamate]
response vs control in vivo at 18 mg/kg [1]: 22.3% | response vs control in vivo at 50 mg/kg [2]: 64.1%

NS(=O)(=O)OCC[C@H]1OC2(CCCC2)O[C@@H]1Cc1ccccc1 [Example 118, 2-((2R,3R)-3-benzyl-1,4-dioxaspiro[4,4]nonan-2-yl)ethyl sulfamate]
response vs control in vivo at 40 mg/kg [1]: 25% | response vs control in vivo at 90 mg/kg [2]: 38.3%

Nc1ccccc1[C@@H]1OC2(CCCC2)O[C@H]1COS(N)(=O)=O [Example 72, ((2S,3S)-3-(2-aminophenyl)-1,4-dioxaspiro[4,4]nonan-2-yl)methyl sulfamate]
response vs control in vivo at 40 mg/kg [1]: 22.6% | response vs control in vivo at 50 mg/kg [2]: 35.1%

CC1(C)O[C@H](CCOS(N)(=O)=O)[C@@H](Cc2ccccc2Cl)O1 [Example 138, 2-((4R,5R)-5-(2-chlorobenzyl)-2,2-dimethyl-1,3-dioxolan-4-yl)ethyl sulfamate]
response vs control in vivo at 40 mg/kg [1]: 32.7% | response vs control in vivo at 90 mg/kg [2]: 71.4%

Nc1ccccc1[C@@H]1OC(c2ccccc2)O[C@H]1COS(N)(=O)=O (stereo partly drawn) [Example 76, ((4S,5S)-5-(2-aminophenyl)-2-phenyl-1,3-dioxolan-4-yl)methyl sulfamate]
response vs control in vivo at 40 mg/kg [1]: 25.7% | response vs control in vivo at 90 mg/kg [2]: 22.9%

CC1(C)O[C@@H](COS(N)(=O)=O)[C@H](c2ccccc2)O1 [Example 106, ((4S,5S)-5-phenyl-2,2-dimethyl-1,3-dioxolan-4-yl)methyl sulfamate]
response vs control in vivo at 18 mg/kg [1]: 23.2% | response vs control in vivo at 50 mg/kg [2]: 25.4%

CCC1(CC)O[C@H](CCOS(N)(=O)=O)[C@@H](Cc2ccccc2)O1 [Example 116, 2-((4R,5R)-5-benzyl-2,2-diethyl-1,3-dioxolan-4-yl)ethyl sulfamate]
response vs control in vivo at 40 mg/kg [1]: 14.5%

CC1(C)OC(COS(N)(=O)=O)C(c2cnc(Cl)nc2)O1 (centres unmarked) [Example 176, (2,2-dimethyl-5-(2-chloropyrimidin-5-yl)-1,3-dioxolan-4-yl)methyl sulfamate]
response vs control in vivo at 60 mg/kg ([1]; 60 mg/kg): 40%

NS(=O)(=O)OCC[C@@H]1OC2(CCCC2)O[C@H]1c1ccccc1 [Example 134, 2-((2S,3S)-3-phenyl-1,4-dioxaspiro[4,4]nonan-2-yl)ethyl sulfamate]
response vs control in vivo at 18 mg/kg [1]: 71.1%

CC1(C)O[C@H](COS(N)(=O)=O)[C@@H](Cc2ccccc2Cl)O1 [Example 146, ((4R,5R)-5-(2-chlorobenzyl)-2,2-dimethyl-1,3-dioxolan-4-yl)methyl sulfamate]
response vs control in vivo at 40 mg/kg [1]: 16.5% | response vs control in vivo at 90 mg/kg [2]: 45.8%

CC1(C)O[C@@H](CCOS(N)(=O)=O)[C@H](c2ccccc2Cl)O1 [Example 154, 2-((4S,5S)-5-(2-chlorophenyl)-2,2-dimethyl-1,3-dioxolan-4-yl)ethyl sulfamate]
response vs control in vivo at 40 mg/kg [1]: 32.1%

CCC1(CC)O[C@@H](COS(N)(=O)=O)[C@H](c2ccccc2N)O1 [Example 70, ((4S,5S)-5-(2-aminophenyl)-2,2-diethyl-1,3-dioxolan-4-yl)methyl sulfamate]
response vs control in vivo at 40 mg/kg [1]: 18.8%

CC1(C)OC(COS(N)(=O)=O)C(c2ccccc2Cl)O1 (mixture of isomers) [Example 3, (5-(2-chlorophenyl)-2,2-dimethyl-1,3-dioxolan-4-yl)methyl sulfamate(SS & RR mixture)]
CFA model: effect (%) at the concentration administered ([1]; 60 mg/kg): ^#60 (24.0%, 0.5 h)

NS(=O)(=O)OC[C@@H]1OC2(CCCC2)O[C@H]1c1ccccc1 [Example 110, ((2S,3S)-3-phenyl-1,4-dioxaspiro[4,4]nonan-2-yl)methyl sulfamate]
response vs control in vivo at 40 mg/kg [1]: 42.7%

CCC1(CC)O[C@H](COS(N)(=O)=O)[C@@H](Cc2ccccc2)O1 [Example 124, ((4R,5R)-5-benzyl-2,2-diethyl-1,3-dioxolan-4-yl)methyl sulfamate]
response vs control in vivo at 40 mg/kg [1]: 34.2%

CCC1(CC)O[C@H](COS(N)(=O)=O)[C@@H](Cc2ccccc2Cl)O1 [Example 148, ((4R,5R)-5-(2-chlorobenzyl)-2,2-diethyl-1,3-dioxolan-4-yl)methyl sulfamate]
response vs control in vivo at 40 mg/kg [1]: 15.5%

NS(=O)(=O)OC[C@H]1OC2(CCCC2)O[C@@H]1Cc1ccccc1 [Example 126, ((2R,3R)-3-benzyl-1,4-dioxaspiro[4,4]nonan-2-yl)methyl sulfamate]
response vs control in vivo at 40 mg/kg [1]: 43.5%

Cc1ncsc1[C@H]1OC(C)(C)O[C@@H]1COS(N)(=O)=O [Example 167, ((4R,5S)-2,2-dimethyl-5-(4-methylthiazol-5-yl)-1,3-dioxolan-4-yl)methyl sulfamate]
response vs control in vivo at 60 mg/kg ([1]; 60 mg/kg): 38.6%

CC1(C)O[C@@H](COS(N)(=O)=O)[C@H](c2ccsc2)O1 [Example 171, ((4S,5S)-2,2-dimethyl-5-(thiophen-3-yl)-1,3-dioxolan-4-yl)methyl sulfamate]
response vs control in vivo at 60 mg/kg ([1]; 60 mg/kg): 29.8%

NS(=O)(=O)OCC[C@@H]1OC2(CCCC2)O[C@H]1c1ccccc1Cl [Example 158, 2-((2S,3S)-3-(2-chlorophenyl)-1.4-dioxaspiro[4,4]nonan-2-yl)ethyl sulfamate]
response vs control in vivo at 40 mg/kg [1]: 29.8%

Nc1ccccc1[C@@H]1OC2(CCCCC2)O[C@H]1COS(N)(=O)=O [Example 74, ((2S,3S)-3-(2-aminophenyl)-1,4-dioxaspiro[4,5]decan-2-yl)methyl sulfamate]
response vs control in vivo at 60 mg/kg ([1]; 60 mg/kg): 37.1%

CC1(C)O[C@H](c2sc(Cl)nc2Cl)[C@@H](COS(N)(=O)=O)O1 [Example 163, ((4R,5S)-5-(2,4-dichlorothiazol-5-yl)-2,2-dimethyl-1,3-dioxolan-4-yl)methyl sulfamate]
response vs control in vivo at 40 mg/kg [1]: 23.1%

CCC1(CC)O[C@H](CCOS(N)(=O)=O)[C@@H](Cc2ccccc2Cl)O1 [Example 140, 2-((4R,5R)-5-(2-chlorobenzyl)-2,2-diethyl-1,3-dioxolan-4-yl)ethyl sulfamate]
response vs control in vivo at 40 mg/kg [1]: 37.4%

CC1(C)OC(COS(N)(=O)=O)C(c2cncnc2)O1 (centres unmarked) [Example 175, 2,2-dimethyl-5-(pyrimidin-5-yl)-1,3-dioxolan-4-yl)methyl sulfamate]
response vs control in vivo at 60 mg/kg ([1]; 60 mg/kg): 44.4%

NS(=O)(=O)OC[C@H]1OC2(CCCCC2)O[C@@H]1Cc1ccccc1 [Example 128, ((2R,3R)-3-benzyl-1,4-dioxaspiro[4,5]decan-2-yl)methyl sulfamate]
response vs control in vivo at 18 mg/kg [1]: 24.5%

CCC1(CC)O[C@@H](CCOS(N)(=O)=O)[C@H](c2ccccc2Cl)O1 [Example 156, 2-((4S,5S)-5-(2-chlorophenyl)-2,2-diethyl-1,3-dioxolan-4-yl)ethyl sulfamate]
response vs control in vivo at 40 mg/kg [1]: 30.8%
